# US20230058134A1, “ALDOSE REDUCTASE INHIBITORS FOR THE TREATMENT OF ACUTE RESPIRATORY DISTRESS SYNDROME, ACUTE LUNG INFLAMMATION/INJURY, CARDIAC INJURY AND ANTI-VIRAL THERAPY” (Applied Therapeutics, Inc., priority 2020, published 2023)
# Entries after “also recorded” stand apart in the source; their conditions may differ.
# Columns and labels:
# [1] = test system: COVID-19 with signs of ARDS and/or ALI; assay: Treatment of Critical COVID-19 (single-patient example written in present tense); format: in vivo; details: one patient, 1500 mg oral twice a day
# [2] = test system: COVID-19 with severe ARDS; assay: Treatment of critical COVID-19 patients with severe ARDS under Emergency Investigational New Drug Applications; format: in vivo, human; details: 1500 mg twice a day
# Experimental: Five critical COVID-19 patients admitted to the intensive care unit with severe ARDS were treated with Compound A (caficrestat) 1500 mg twice a day. All patients were on 100% high flow oxygen, had failed all other available treatment options, including anti-IL^6/anti-IL-17 therapy, and were at high risk of rapid progression to mechanical ventilation. The patients were treated under Emergency Investigational New Drug Applications as the last option to prevent mortality.
# [3] = test system: COVID-19 infection; assay: Open-label prospective phase 2 study of Compound A in high risk patients hospitalized with COVID-19, with matched registry controls; details: for Median LOS (95% CI): length of hospital stay, 1500 mg twice daily up to 14 days; for Estimated difference in median LOS / Estimated difference in median LOS (95% CI): Hodges-Lehmann estimate
# [4] = 10 participants, 1500 mg twice daily
# [5] = eight participants who survived and were discharged
structure (smiles),measurement,setting,value
"O=C(O)Cc1nn(Cc2nc3cc(C(F)(F)F)ccc3s2)c(=O)c2nccnc12 [Compound A, caficrestat]",signs of ARDS and/or ALI,[1],diminished
same,viral burden,[1],reduced
same,patients recovered and discharged from the hospital,[2]; five ICU patients on 100% high flow oxygen,Four of the five
same,patients who died,"[2]; five ICU patients, patient had a do not resuscitate order",One patient
same,adverse events leading to early discontinuation of treatment,[3]; [4],mild-moderate grade adverse events possibly linked to study drug in three participants
same,safety laboratory monitoring during hospitalization,[3]; [4],did not demonstrate any treatment-related abnormal findings
same,percent mortality,"[3]; 10 participants, death during index hospitalization due to COVID-19 complications",20%
same,Median LOS (95% CI),"[3]; All Subjects, N=10","5 (4, 29)"
same,Estimated difference in median LOS,"[3]; All Subjects, Compound A vs Match 1 control group (N=16)",1.5
same,Estimated difference in median LOS,"[3]; All Subjects, Compound A vs Match 2 control group (N=60)",14
same,Median LOS (95% CI),"[3]; Surviving Subjects, N=8","5 (4, 35)"
same,Estimated difference in median LOS (95% CI),"[3]; Surviving Subjects, Compound A vs Match 1 control group (N=11)","1 (−2, 19)"
same,Estimated difference in median LOS (95% CI),"[3]; Surviving Subjects, Compound A vs Match 2 control group (N=43)","9 (0, 42)"
same,median hospital length of stay,[3]; [5],5 days
same,range of hospital length of stay,[3]; [5],3 to 35 days
same,safety and tolerability,"[3]; hospitalized COVID-19 patients with diabetes mellitus and hypertension, 1500 mg twice daily",generally safe and well tolerated
same,participants who survived and were discharged from the hospital,[3]; of 10 treated participants,Eight of the ten treated patients survived
same,progression to mechanical ventilation,[3]; ten treated patients,None of the treated patients progressed to mechanical ventilation
same,mortality compared with matched control groups,"[3]; vs control group 1 (31.3%) and control group 2 (28.3%), vs non-high risk population",numerically lower; also recorded: decreased to the level observed for the non-high risk population
same,length of hospital stay compared with matched control groups,[3]; vs the two matched control groups,numerically less
